Columns and labels:
melan-a cells = experiment: Cellular melanin content (SRB combined assay); assay type: cell-based, murine; settings: α-MSH, 72 hrs
Experimental: Murine melan-a cells (an immortalized, non-tumorigenic murine melanocyte cell line) were obtained from Chinese University of Hong Kong. Cells were cultured in RPMI 1640 medium. Culture medium was supplemented with 10% FBS and 1% penicillin-streptomycin and the cells were incubated at 37° C. in 5% CO2. […] The tested chemical agents (e.g., 6-CEPN and Kojic acid) were individually dissolved as a stock solution at a concentration of 100 mM in 100% dimethyl sulfoxide (DMSO). The stock solution was diluted using culture medium to the desired final concentrations immediately prior to use.
Melan-a cells (3×10^5 cells/well) were plated in 2 mL of 12-well multidishes for at least 24 hrs prior to use. […] Melanin content was measured using a sulphorhodamine B (SRB) combined assay (Lam R Y et al., J Ethnopharmacol, 132(1):274-9 (2010); Chinese patent application publication no. CN 104758191 A) to ensure any reduction in the melanin content was not due to the death of melan-a cells. As the colorimetric-based SRB assay could accurately estimate the number of viable cells, the melanin level was expressed as melanin content versus each single cell by taking into account the results of viable cells from the SRB assay. […] After a 72 h incubate, cell number was counted using SRB assay. […] The OD value was read at 595 nm. […]

[1] = tested on: MelanoDerm (Mel-300-A) epidermal equivalents containing melanocytes; experiment: Depigmentation in artificial skin model: brightness and L* value; assay type: cell-based, human; settings: 6-CEPN 10 μM, 8-CEPQ 5 μM
Experimental: (§1) Epidermal equivalents containing melanocytes (Mel-300-A) were maintained according to the manufacturer's instructions. Mel-300-A tissue was cultured in EPI-100-NMM-113 medium for 14 days. Agents were dissolved in tissue culture medium and changed every other day. The test agents were either (1) rapamycin (2.5 μM), as the positive control in depigmentation, (2) 6-CEPN (10 μM), or (3) 8-CEPQ (5 μM). The concentration of rapamycin used was lower than 6-CEPN and 8-CEPQ, as rapamycin is toxic to cells at higher concentration. Pigmentation of these skin equivalents was compared against treatment of cells with a culture medium only (denoted as “vehicle”). Tissue viability was assessed on day 14 by CCK-8 assay as described in Example 1. On day 14, single tissues were harvested and photographed. The L* parameter was used to evaluate skin lightening or darkening. The lighter the skin, the greater the L* value. ΔL* value was measured by a Chroma Meter CR400 (Konica Minolta) for an evaluation of lightening as a function of time. Three tissues for each treatment were frozen for the Solvable Melanin assay (Bessou-Touya et al., “Chimeric human epidermal reconstructs to study the role of melanocytes and keratinocytes in pigmentation and photoprotection.” Journal of investigative dermatology 111(6):1103-1108 (1998)). Additional tissues were fixed by 10% formanin. For melanin staining in paraffin-embedded tissues, Fontana-Masson silver staining was used as previously detailed (Barbosa et al., “A simple and economical modification of the Masson-Fontana method for staining melanin granules and enterochromaffin cells.” Stain technology 59(4):193-196 (1984)).

[2] = tested on: MelanoDerm (Mel-300-A) epidermal equivalents containing melanocytes; experiment: Fontana-Masson silver staining of artificial skin model; assay type: cell-based, human; settings: day 14, rapamycin 2.5 μM, 6-CEPN 10 μM
Experimental: as §1

Structure (SMILES): O=C1C[C@@H](c2ccc(O)cc2)Oc2cc(O)c(/C=C/c3ccccc3)c(O)c21 [6-CEPN, 6-C-(E-phenylethenyl)-naringenin]
- depigmenting effects (in words) (melan-a cells): much stronger depigmenting effects than kojic acid
- depigmentation (melan-a cells; 20 μM): ~80%
- brightness of the tissues (visual examination) ([1]; 14 days, rapamycin 2.5 μM): increased the brightness of the tissues
- L* value vs negative control ([1]; day 14, rapamycin 2.5 μM): increased the L* value
- melanin content and distribution (Fontana Masson staining) [2]: significant decrease in the melanin content and distribution
- thickness of basal layer of tissue [2]: without causing reduction in the thickness of basal layer of tissue

From patent US10973748B2, “Compositions and methods for lightening skin and reducing hyperpigmentation” (Versitech Limited, priority 2016, dated 2021)
